Experimental findings from patent US20050137230A1, “Carboxamide derivatives” (priority 2000, published 2005) are described below.

For one experiment, the target named is factor Xa (Homo sapiens, UniProt P00742). In words: inhibition of factor Xa. Type of experiment: biochemical. An excerpt:
The inhibition of factor Xa by the compounds according to the invention and the measurement of the anticoagulant and antithrombotic activity can be determined by conventional in-vitro or in-vivo methods. A suitable method is described, for example, by J. Hauptmann et al. in Thrombosis and Haemostasis 1990, 63, 220-223.
The inhibition of factor Xa can be measured, for example, by the method of T. Hara et al. in Thromb. Haemostas. 1994, 71, 314-319.

For another experiment, the target named is T1, factor VIIa (Homo sapiens, UniProt P08709).
T1 sequence (P08709 213-466 limits assumed): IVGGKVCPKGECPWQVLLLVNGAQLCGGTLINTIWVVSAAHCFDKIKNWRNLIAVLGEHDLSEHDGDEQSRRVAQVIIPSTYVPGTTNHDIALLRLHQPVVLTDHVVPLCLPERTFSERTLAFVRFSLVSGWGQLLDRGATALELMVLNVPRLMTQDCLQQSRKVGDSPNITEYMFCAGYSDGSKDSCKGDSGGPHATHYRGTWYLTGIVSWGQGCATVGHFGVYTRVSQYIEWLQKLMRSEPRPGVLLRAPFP
T1 sequence (P08709 61-212 partner limits assumed): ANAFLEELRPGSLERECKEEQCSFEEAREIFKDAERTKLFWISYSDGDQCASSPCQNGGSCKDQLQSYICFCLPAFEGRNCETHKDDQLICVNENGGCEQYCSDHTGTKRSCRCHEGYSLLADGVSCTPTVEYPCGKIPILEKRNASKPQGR
Kind of experiment: inhibition of factor VIIa. Type of experiment: biochemical. An excerpt:
The inhibition of factor VIIa by the compounds according to the invention and the measurement of the anticoagulant and antithrombotic activity can be determined by conventional in-vitro or in-vivo methods. A conventional method for the measurement of the inhibition of factor VIIa is described, for example, by H. F. Ronning et al. in Thrombosis Research 1996, 84, 73-81.

Chain of factor Xa (P00742 235-488 limits assumed): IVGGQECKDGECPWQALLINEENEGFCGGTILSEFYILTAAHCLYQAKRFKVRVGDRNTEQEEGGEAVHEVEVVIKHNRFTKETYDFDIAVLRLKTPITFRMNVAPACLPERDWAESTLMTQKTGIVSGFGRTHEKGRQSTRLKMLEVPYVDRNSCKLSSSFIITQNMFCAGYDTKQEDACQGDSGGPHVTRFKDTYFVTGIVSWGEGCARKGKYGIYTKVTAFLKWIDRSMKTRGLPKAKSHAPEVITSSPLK
Chain of factor Xa (P00742 41-179 partner limits assumed): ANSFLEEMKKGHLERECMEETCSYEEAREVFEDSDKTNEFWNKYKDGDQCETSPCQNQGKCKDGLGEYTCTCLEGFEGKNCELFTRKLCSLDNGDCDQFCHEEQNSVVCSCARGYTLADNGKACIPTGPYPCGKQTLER

Take `CCCC[C@@H](NC(=O)Nc1ccccc1)C(=O)Nc1ccc(-c2ccccc2S(C)(=O)=O)cc1` [(R)-2-(3-phenylureido)-N-(2′-methylsulfonylbiphenyl-4-yl)hexanoamide]: the IC50 against factor Xa turned out to be 3000 nM; against factor VIIa it was 170 nM.

As to `O=C(Nc1ccc(Cl)cc1)N[C@@H](C(=O)NCC1CCN(c2ccncc2)CC1)c1ccccc1` [(R)-2-[3-(4-chlorophenyl)ureido]-N-[1-(pyridin-4-yl)piperidin-4-ylmethyl]-2-phenylacetamide], the midpoint of inhibition at factor Xa, the IC50, lay at 55 nM.

For `CCC[C@H](NC(=O)Nc1ccccn1)C(=O)Nc1ccc(-c2ccccc2S(C)(=O)=O)cc1` [(S)-2-(3-pyridin-2-ylureido)-N-(2′-methylsulfonylbiphenyl-4-yl)-pentanoamide], the IC50 against factor Xa was found to be 3800 nM; against factor VIIa, 2700 nM.

As for `CS(=O)(=O)c1ccccc1-c1ccc(NC(=O)C(NC(=O)Nc2ccccc2)c2ccccc2)cc1` (centres unmarked) [2-(3-phenylureido)-N-(2′-methylsulfonylbiphenyl-4-yl)-2-phenyl-acetamide], the IC50 against factor Xa was 2300 nM; against factor VIIa it was 2000 nM.

Take `CC(C)C[C@@H](NC(=O)Nc1ccc(Cl)cc1)C(=O)NCC1CCN(c2ccncc2)CC1` [(R)-2-[3-(4-chlorophenyl)ureido]-N-[1-(pyridin-4-yl)piperidin-4-ylmethyl]-4-methylvaleramide]: the half-inhibitory concentration (IC50) on factor Xa worked out at 410 nM.

Consider `CCC[C@@H](NC(=O)Nc1ccccc1)C(=O)Nc1ccc(-c2ccccc2S(C)(=O)=O)cc1` [(R)-2-(3-phenylureido)-N-(2′-methylsulfonylbiphenyl-4-yl)pentanoamide], for which the figures for the IC50 against factor Xa and on factor VIIa were 2000 nM and 930 nM, respectively.

Regarding `CS(=O)(=O)c1ccccc1-c1ccc(NC(=O)C(Cc2cccs2)NC(=O)Nc2ccccc2)cc1` (centres unmarked) [2-(3-phenylureido)-N-(2′-methylsulfonylbiphenyl-4-yl)-3-(thiophen-2-yl)-propionamide], the IC50 was found to be 1200 nM against factor Xa and 750 nM on factor VIIa.

As to `CSCCC(NC(=O)Nc1ccccc1)C(=O)Nc1ccc(-c2ccccc2S(C)(=O)=O)cc1` (centres unmarked) [2-(3-phenylureido)-N-(2′-methylsulfonylbiphenyl-4-yl)-4-methylsulfanylbutyramide], the figures for the IC50 against factor Xa and against factor VIIa were 2300 nM and 1800 nM, respectively.

Turning to `CCCC(NC(=O)Nc1ccc(Cl)cc1)C(=O)NCC1CCN(c2ccncc2)CC1` (centres unmarked) [2-[3-(4-chlorophenyl)ureido]-N-[1-(pyridin-4-yl)piperidin-4-ylmethyl]-valeramide], the midpoint of inhibition against factor Xa, the IC50, lay at 580 nM.

With `CS(=O)(=O)c1ccccc1-c1ccc(NC(=O)C(Cc2cnc[nH]2)NC(=O)Nc2ccccc2)cc1` (centres unmarked) [2-(3-phenylureido)-N-(2′-methylsulfonylbiphenyl-4-yl)-3-(3H-imidazol-4-yl)propionamide], the 50% inhibitory concentration (IC50) at factor Xa and against factor VIIa was 2000 nM throughout.

Turning to `O=C(Nc1ccc(Cl)cc1)OC(C(=O)NCC1CCN(c2ccncc2)CC1)c1ccccc1` (centres unmarked) [2-[N-(4-chlorophenyl)-carbamoyloxy]-N-[1-(pyridin-4-yl)piperidin-4-ylmethyl]-2-phenylacetamide], on factor Xa, the concentration for half-maximal inhibition (IC50) was determined as 71 nM.

As for `CS(=O)(=O)c1ccccc1-c1ccc(NC(=O)[C@@H](Cc2ccccc2)NC(=O)Nc2ccc(Cl)cc2)cc1` [(R)-2-[3-(4-chlorophenyl)ureido]-N-(2′-methylsulfonylbiphenyl-4-yl)-3-phenylpropionamide], the IC50 is 86 nM on factor Xa and 65 nM against factor VIIa.
